# Species on record: Rattus norvegicus
# Test: Open TG-GATES - Regimen: Daily Repeat
# Type: toxicity, organism-based, Sprague-Dawley
# Parameters: regimen Daily Repeat, gender Male, age 6 weeks
# Settings: in vivo, po, 1000 mg/kg, route gavage, dose level High; for APTT / Bas / Eos / Fbg / Hb / Ht / Lym / MCH / MCHC / MCV / Mono / Neu / PT / Plat / RBC / Ret / WBC: tissue Blood; for KIDNEY_L / KIDNEY_R / KIDNEY_TOTAL: tissue Kidney; for LIVER: tissue Liver; for A/G / ALP / ALT / AST / BUN / CRE / Ca / Cl / DBIL / GLC / IP / K / LDH / Na / PL / RALB / TBIL / TC / TG / TP / gamma-GTP: tissue Plasma
compound,measurement,setting,value
Cc1nnc2n1-c1ccc(Cl)cc1C(c1ccccc1Cl)=NC2 [TRIAZOLAM],TERMINAL_BW,"72 h, time 3 day",221.7 g
same,APTT,"72 h, time 3 day",18.3 s
same,Bas,"72 h, time 3 day",0.2%
same,Eos,"72 h, time 3 day",1%
same,Fbg,"72 h, time 3 day",278.6 mg/dL
same,Hb,"72 h, time 3 day",13.8 g/dL
same,Ht,"72 h, time 3 day",41.1%
same,Lym,"72 h, time 3 day",78.2%
same,MCH,"72 h, time 3 day",21.3 pg
same,MCHC,"72 h, time 3 day",33.6%
same,MCV,"72 h, time 3 day",63.4 fL
same,Mono,"72 h, time 3 day",3.6%
same,Neu,"72 h, time 3 day",16%
same,PT,"72 h, time 3 day",13 s
same,Plat,"72 h, time 3 day",124.4 x10_4/uL
same,RBC,"72 h, time 3 day",650.2 x10_4/ul
same,Ret,"72 h, time 3 day",6.4%
same,WBC,"72 h, time 3 day",105.8 x10_2/uL
same,KIDNEY_L,"72 h, time 3 day",1 g
same,KIDNEY_R,"72 h, time 3 day",1 g
same,KIDNEY_TOTAL,"72 h, time 3 day",1.9 g
same,LIVER,"72 h, time 3 day",10.9 g
same,A/G,"72 h, time 3 day",0.9
same,ALP,"72 h, time 3 day",1527.4 IU/L
same,ALT,"72 h, time 3 day",56 IU/L
same,AST,"72 h, time 3 day",67.4 IU/L
same,BUN,"72 h, time 3 day",14.4 mg/dL
same,CRE,"72 h, time 3 day",0.2 mg/dL
same,Ca,"72 h, time 3 day",11.5 mg/dL
same,Cl,"72 h, time 3 day",102.8 meq/L
same,DBIL,"72 h, time 3 day",0.016 mg/dL
same,GLC,"72 h, time 3 day",167 mg/dL
same,IP,"72 h, time 3 day",9.1 mg/dL
same,K,"72 h, time 3 day",4.2 meq/L
same,LDH,"72 h, time 3 day",98.4 IU/L
same,Na,"72 h, time 3 day",141.6 meq/L
same,PL,"72 h, time 3 day",157 mg/dL
same,RALB,"72 h, time 3 day",2.6 g/dL
same,TBIL,"72 h, time 3 day",0.048 mg/dL
same,TC,"72 h, time 3 day",81.2 mg/dL
same,TG,"72 h, time 3 day",84.2 mg/dL
same,TP,"72 h, time 3 day",5.6 g/dL
same,gamma-GTP,"72 h, time 3 day",1 IU/L
same,TERMINAL_BW,"[…], time 7 day",254.6 g
same,TERMINAL_BW,"[…], time 14 day",312.6 g
same,TERMINAL_BW,"[…], time 28 day",383.1 g
same,APTT,"[…], time 7 day",17.8 s
same,Bas,"[…], time 7 day",0%
same,Eos,"[…], time 7 day",1%
same,Fbg,"[…], time 7 day",282.6 mg/dL
same,Hb,"[…], time 7 day",13.7 g/dL
same,Ht,"[…], time 7 day",40.7%
same,Lym,"[…], time 7 day",74%
same,MCH,"[…], time 7 day",20.9 pg
same,MCHC,"[…], time 7 day",33.6%
same,MCV,"[…], time 7 day",62.1 fL
same,Mono,"[…], time 7 day",2.6%
same,Neu,"[…], time 7 day",21.6%
same,PT,"[…], time 7 day",12.8 s
same,Plat,"[…], time 7 day",129.1 x10_4/uL
same,RBC,"[…], time 7 day",656.2 x10_4/ul
same,Ret,"[…], time 7 day",5.5%
same,WBC,"[…], time 7 day",113.3 x10_2/uL
same,APTT,"[…], time 14 day",18.3 s
same,Bas,"[…], time 14 day",0.4%
same,Eos,"[…], time 14 day",1%
same,Fbg,"[…], time 14 day",249.6 mg/dL
same,Hb,"[…], time 14 day",14.2 g/dL
same,Ht,"[…], time 14 day",43.5%
same,Lym,"[…], time 14 day",78.6%
same,MCH,"[…], time 14 day",20 pg
same,MCHC,"[…], time 14 day",32.6%
same,MCV,"[…], time 14 day",61.2 fL
same,Mono,"[…], time 14 day",2.6%
same,Neu,"[…], time 14 day",16.8%
same,PT,"[…], time 14 day",13.3 s
same,Plat,"[…], time 14 day",123.4 x10_4/uL
same,RBC,"[…], time 14 day",711.4 x10_4/ul
same,Ret,"[…], time 14 day",5.3%
same,WBC,"[…], time 14 day",135.4 x10_2/uL
same,APTT,"[…], time 28 day",18.3 s
same,Bas,"[…], time 28 day",0.2%
same,Eos,"[…], time 28 day",1.4%
same,Fbg,"[…], time 28 day",273 mg/dL
same,Hb,"[…], time 28 day",15.3 g/dL
same,Ht,"[…], time 28 day",45.2%
same,Lym,"[…], time 28 day",76.2%
same,MCH,"[…], time 28 day",19.7 pg
same,MCHC,"[…], time 28 day",33.9%
same,MCV,"[…], time 28 day",58.2 fL
same,Mono,"[…], time 28 day",2.2%
same,Neu,"[…], time 28 day",18.4%
same,PT,"[…], time 28 day",13.2 s
same,Plat,"[…], time 28 day",112.9 x10_4/uL
same,RBC,"[…], time 28 day",776.4 x10_4/ul
same,Ret,"[…], time 28 day",2.4%
same,WBC,"[…], time 28 day",103.3 x10_2/uL
same,KIDNEY_L,"[…], time 7 day",1.1 g
same,KIDNEY_R,"[…], time 7 day",1.1 g
same,KIDNEY_TOTAL,"[…], time 7 day",2.3 g
same,KIDNEY_L,"[…], time 14 day",1.3 g
same,KIDNEY_R,"[…], time 14 day",1.3 g
same,KIDNEY_TOTAL,"[…], time 14 day",2.5 g
same,KIDNEY_L,"[…], time 28 day",1.4 g
same,KIDNEY_R,"[…], time 28 day",1.4 g
same,KIDNEY_TOTAL,"[…], time 28 day",2.8 g
same,LIVER,"[…], time 7 day",12.4 g
same,LIVER,"[…], time 14 day",14.2 g
same,LIVER,"[…], time 28 day",15.2 g
same,A/G,"[…], time 7 day",0.9
same,ALP,"[…], time 7 day",1848.4 IU/L
same,ALT,"[…], time 7 day",47.2 IU/L
same,AST,"[…], time 7 day",67.2 IU/L
same,BUN,"[…], time 7 day",15.8 mg/dL
same,CRE,"[…], time 7 day",0.2 mg/dL
same,Ca,"[…], time 7 day",11.2 mg/dL
same,Cl,"[…], time 7 day",105 meq/L
same,DBIL,"[…], time 7 day",0.014 mg/dL
same,GLC,"[…], time 7 day",176.6 mg/dL
same,IP,"[…], time 7 day",7.4 mg/dL
same,K,"[…], time 7 day",4.7 meq/L
same,LDH,"[…], time 7 day",86.2 IU/L
same,Na,"[…], time 7 day",142 meq/L
same,PL,"[…], time 7 day",160.8 mg/dL
same,RALB,"[…], time 7 day",2.7 g/dL
same,TBIL,"[…], time 7 day",0.032 mg/dL
same,TC,"[…], time 7 day",78.6 mg/dL
same,TG,"[…], time 7 day",108.2 mg/dL
same,TP,"[…], time 7 day",5.7 g/dL
same,gamma-GTP,"[…], time 7 day",1 IU/L
same,A/G,"[…], time 14 day",0.9
same,ALP,"[…], time 14 day",1576.6 IU/L
same,ALT,"[…], time 14 day",48 IU/L
same,AST,"[…], time 14 day",71.6 IU/L
same,BUN,"[…], time 14 day",17.8 mg/dL
same,CRE,"[…], time 14 day",0.2 mg/dL
same,Ca,"[…], time 14 day",10.8 mg/dL
same,Cl,"[…], time 14 day",103.6 meq/L
same,DBIL,"[…], time 14 day",0.01 mg/dL
same,GLC,"[…], time 14 day",188.4 mg/dL
same,IP,"[…], time 14 day",7.7 mg/dL
same,K,"[…], time 14 day",4.1 meq/L
same,LDH,"[…], time 14 day",112.2 IU/L
same,Na,"[…], time 14 day",141.8 meq/L
same,PL,"[…], time 14 day",157.6 mg/dL
same,RALB,"[…], time 14 day",2.6 g/dL
same,TBIL,"[…], time 14 day",0.036 mg/dL
same,TC,"[…], time 14 day",74.8 mg/dL
same,TG,"[…], time 14 day",127.4 mg/dL
same,TP,"[…], time 14 day",5.7 g/dL
same,gamma-GTP,"[…], time 14 day",1 IU/L
same,A/G,"[…], time 28 day",0.8
same,ALP,"[…], time 28 day",950 IU/L
same,ALT,"[…], time 28 day",41.2 IU/L
same,AST,"[…], time 28 day",68.8 IU/L
same,BUN,"[…], time 28 day",15.4 mg/dL
same,CRE,"[…], time 28 day",0.2 mg/dL
same,Ca,"[…], time 28 day",10.5 mg/dL
same,Cl,"[…], time 28 day",105.2 meq/L
same,DBIL,"[…], time 28 day",0.002 mg/dL
same,GLC,"[…], time 28 day",181 mg/dL
same,IP,"[…], time 28 day",6 mg/dL
same,K,"[…], time 28 day",4 meq/L
same,LDH,"[…], time 28 day",75 IU/L
same,Na,"[…], time 28 day",142.2 meq/L
same,PL,"[…], time 28 day",159.8 mg/dL
same,RALB,"[…], time 28 day",2.8 g/dL
same,TBIL,"[…], time 28 day",0.046 mg/dL
same,TC,"[…], time 28 day",79.8 mg/dL
same,TG,"[…], time 28 day",92 mg/dL
same,TP,"[…], time 28 day",6.1 g/dL
same,gamma-GTP,"[…], time 28 day",1.2 IU/L

# Source: ChEMBL document CHEMBL3885861, “Open TG-GATES”
